# Several values for one entry are separate records, joined by “and”; a condition that tells them apart may be missing. Identical values can stand only once. Entries after “also recorded” stand apart in the source; their conditions may differ. Where no end group is shown, it is not given here. [ ]: non-standard residue; d: D form. pGlu = O=C1CC[C@@H](C(=O)O)N1
# Assays:
# active hair follicles = details: topically applied to rodent skin; cited from earlier work
# inactive hair follicles = assay: Inventor's observation: activation of inactive hair follicles; details: in vivo
# hair follicles [1] = details: active hair follicles that entered catagen; US 2011/0281802; cited from earlier work
# [2] = tested on: adult subjects with a diagnosis of AGA; assay: Further clinical trial, safety: side effects and drug interaction; format: in vivo, human; details: listed as ZT
# Text: (§1) Eighteen consecutive adult subjects were recruited, 17 males and 1 female, age range 35-90 years (mean 55.4, SD 13.3) with a diagnosis of AGA, Norwood classification 2-7, and hair loss duration range of 3-40 years (mean 15.8, SD 9.6). The trial duration for each subject ranged from 4-10 months. The test compound ZT was synthesized by standard Fmoc peptide protocols and administered in water based topical spray to the scalp. Baseline and after treatment images for hair growth were graded by two blinded assessors using two validated scales: 1. numerical visual analog scale (VAS) for global assessment 2. hair growth index (HGI) of images under higher magnification for percentage changes of vellus, intermediate and terminal hair.
# (§2) Male and female adult subjects with a diagnosis of AGA were invited to participate in the study. Each subject provided written informed consent except the subject who gave verbal consent as they were unable to provide written consent due to arthritis of the hand. The study was conducted in compliance with the Declaration of Helsinki, International Conference on Harmonization Good Clinical Practice guidelines. Eighteen consecutive adult subjects were recruited (17 males and 1 […]) with an age range 35-90 years (mean 55.4, SD 13.3) with a diagnosis of AGA Norwood-Hamilton classification 2-7, and with a hair loss history ranging from 3-40 years (mean 15.8, SD 9.6). Entry time points of the volunteers occurred over 6 months with the trial completed at the same endpoint resulting in duration of treatment for subjects in the trial ranging from 4-10 months.
# (§3) The product given to subjects was a 100 ml spray bottle containing 0.0005% ZT as the active test agent. Subjects were instructed to spray 1-2 ml of solution, twice daily, and rub into the scalp. The spray bottle solution was to be kept away from direct sunlight and heat. Subjects were resupplied with fresh solutions every 6-8 weeks during the trial.
# [3] = tested on: adult subjects with a diagnosis of AGA; assay: Further clinical trial, numbered visual analog scale (VAS) global hair assessment; format: in vivo, human; details: for VAS after treatment: scale 0-10, one value per subject 1-18, 0.0005% spray twice daily, 4-10 months
# Text: as §1, §2, §3
# (§4) Images were captured on a Samsung Galaxy Note 4 phone in high resolution (16 MB image) with flash, F 2.2 and focal length 31 mm. For assessment, baseline and after treatment images were de-identified, paired and randomly allocated with respect to left/right sides. Images were presented for analysis to assessors in Powerpoint format files on a 55 inch high resolution television screen. All images and original assessor scorecards were archived in PDF format for external reviewer confirmation.
# 1. Numbered visual analog scale (VAS) where the assessor gives a value between 0-10 of the image (0=total absence of hair, 10=full abundant hair) (Price, 2008).
# (§5) Assessment was graded by two independent assessors in a single blind manner. Assessors underwent three training sessions over two weeks prior to the final evaluation.
# scalp of subject #17 = assay: Fluorescence spectroscopy procedure of the scalp; format: in vivo, human; details: subject #17 (30 year hair loss); 6 pre-existing terminal hairs under visible white LED light
# Text: To confirm this effect subject #17 (30 year hair loss) underwent a fluorescence spectroscopy procedure of the scalp. […] Supporting evidence was seen when comparing the assessor pooled responses of ‘total absent hair’ where 65% (13/20) of subjects improved.
# [4] = tested on: adult subjects with a diagnosis of AGA; assay: Further clinical trial, Hair Growth Index (HGI) of magnified images; format: in vivo, human; details: for HGI adjusted score A (absent) after: raw % multiplied by 0; for HGI raw score % A (absent) after / HGI raw score % I (intermediate) after / HGI raw score % T (terminal) after / HGI raw score % V (vellus) after: per subject, after trial completion
# Text: as §1, §2, §3, §4
# 2. Hair Growth Index (HGI) that is a more in-depth scale of analysis where higher magnification of images can identify the four types of hair regrowth that are designated as absent, vellus, intermediate or terminal (Bernado, 2003). For each image these four growth stages are given percentage values that added together give a raw score total of 100%. Each percentage value for absent, vellus, intermediate, and terminal are multiplied by 0,1,2,3 respectively to yield a final adjusted score ranging from a possible minimum score of 0 (total absence of hair) to a maximum score of 300 (full terminal hair). Scores were pooled for paired t-test, and P<0.05 was established for significance.
# as §5
# hair follicles [5] = assay: Clinical trial using topical zinc thymulin: number of active hair follicles in a set scalp area; format: in vivo, Human
# Description: The area near the marker affected by hair loss was photographed using a Samsung Galaxy Note 4 camera with settings F2.2, focal length 31 mm, LED flash and the number of active hair follicles in a set area were quantified.
# The aqueous spray formulation prepared in Example 2 was administered topically to the scalp of the trial subjects twice daily to the hair loss region(s) of the scalp. The formulation used for subjects 1, 2 and 3 contained 0.00005% LKKTETQ peptide (molecular weight 846.48).
# At 16 weeks for subject 1 and 12 weeks for subjects 2, 3 and 4, the number of active hair follicles in the set area was quantified again. Multiple set areas of hair loss were evaluated for trial subjects 1, 2 and 3. These areas are designated “a” and “b” in Table 2 and Table 3.
# [6] = all 7 subject areas, 12-16 weeks
# [7] = subject 4, 12 weeks, spray without LKKTETQ peptide
substance,measurement,setting,value
"LKKTETQ [leucine-leucine-lysine-threonine-glutamic acid-threonine-glutamine, added at 0.00005% (amidated & acetylated) to the spray of subjects 1-3]",hair growth,active hair follicles,promotes hair growth from existing active hair follicles
"pyrGlu-Ala-Lys-Ser-Gln-Gly-Gly-Ser-Asn ([pGlu]AKSQGGSN) [thymulin, nonapeptide produced by the thymus gland, CAS 63958-90-7, reference compound]",activation of inactive hair follicles,inactive hair follicles,does not significantly activate inactive hair follicles
same,hair shaft formation,hair follicles [1],inhibit hair shaft formation
zinc thymulin: zinc complex of amidated and acetylated thymulin H3CC(O)-Pyr-Glu-Ala-Lys-Ser-Gln-Gly-Gly-Ser-Asn-NH2; tested as 0.0005% water based topical spray (Ac-[pGlu]AKSQGGSN-NH2; also: zinc complex),"adverse systemic effects or local side effects (redness, scalp irritation)","[2]; 18 subjects, topical 0.0005% spray, total of 3,300 treatment days","no adverse systemic effects or local side effects of redness or scalp irritation; also recorded: no redness, scalp irritation or deterioration of hair color, quality or quantity"
same,side effects reported in the entire study,"[2]; 18 test subjects, total of 111 months (~3,300 days), attributed to a non-active constituent (citric acid buffer)",Only one side effect; also recorded: only one side effect from a non-active constituent
same,drug interaction with ZT,[2]; three subjects concurrently using minoxidil (N=2) and minoxidil/finasteride (N=1),did not report any drug interaction; also recorded: no observable drug interaction
same,activation of inactive hair follicles,inactive hair follicles,effective
same,VAS hair assessment improvement,"[3]; 11 subjects who completed at least 6 months of treatment, listed as ZT",significant growth
same,VAS after treatment,[3]; Assessor #1,6 (3×) and 8 (10×) and 9 (3×) and 7 (2×)
same,VAS after treatment,[3]; Assessor #2,6 (5×) and 8 (5×) and 7 (3×) and 4 and 9 (2×) and 5 (2×)
same,VAS hair growth,[3]; total group (18 subjects) at the end of the trial,no significant growth
same,additional developing vellus hairs revealed by spectroscopy,scalp of subject #17,59
same,assessor pooled responses of 'total absent hair' improved,[4]; 13/20 pooled responses,65%
same,HGI adjusted score A (absent) after,[4]; Assessor #1,0
same,HGI adjusted score A (absent) after,[4]; Assessor #2,0
same,HGI adjusted score I (intermediate) after,"[4]; Assessor #2, raw % multiplied by 2, listed as ZT",60 and 40
same,average increase of intermediate type hairs,"[4]; HGI assessment, at 6 months",23%
same,average increase of vellus type hairs,"[4]; HGI assessment, at 6 months",32%
same,number of newly observed intermediate hairs in previous absent hair regions,"[4]; HGI assessment, listed as ZT",significant increase; also recorded: highly significant increased number
same,HGI raw score % A (absent) after,"[4]; assessor A#1, listed as ZT",50% (3×) and 40% (4×) and 15% and 20% (2×)
same,HGI raw score % I (intermediate) after,"[4]; assessor A#1, listed as ZT",20% (2×) and 15% and 10% (2×) and 25% (5×)
same,HGI raw score % T (terminal) after,"[4]; assessor A#1, listed as ZT",20% (2×) and 30% (3×) and 15% and 10% (2×) and 55% and 60%
same,HGI raw score % V (vellus) after,"[4]; assessor A#1, listed as ZT",10% (3×) and 20% (2×) and 25% (3×) and 15% and 5%
same,HGI raw score % A (absent) after,"[4]; assessor A#2, listed as ZT",20% and 30% (3×) and 10% (3×) and 40% (2×) and 50%
same,HGI raw score % I (intermediate) after,"[4]; assessor A#2, listed as ZT",30% (6×) and 20% (4×)
same,HGI raw score % T (terminal) after,"[4]; assessor A#2, listed as ZT",20% (4×) and 30% (2×) and 40% and 10% (2×) and 60%
same,HGI raw score % V (vellus) after,"[4]; assessor A#2, listed as ZT",30% (3×) and 20% (3×) and 0% and 40% and 10% (2×)
same,Melanogenesis,"[4]; higher magnification images, several (older) subjects, listed as ZT",Melanogenesis was observed in several subjects; also recorded: clearly observed
same,"Percentage increase in active hair follicles, Average increase",hair follicles [5]; [6],80%
same,"Percentage increase in active hair follicles, Range",hair follicles [5]; [6],6-200%
same,Number of active hair follicles after treatment per cm^2,"hair follicles [5]; subject 1 (areas a, b), 16 weeks, spray with LKKTETQ peptide",21 per cm^2 and 24 per cm^2
same,Number of active hair follicles after treatment,"hair follicles [5]; subject 1 (areas a, b), 16 weeks, twice daily topical 0.0005% spray also containing 0.00005% LKKTETQ peptide",36 and 48
same,Number of active hair follicles after treatment per cm^2,hair follicles [5]; [7],38 per cm^2
same,Percentage increase in active hair follicles,hair follicles [5]; [7],135%
same,Number of active hair follicles after treatment,"hair follicles [5]; subject 4, 12 weeks, twice daily topical 0.0005% spray without LKKTETQ peptide",40

# Reference: patent publication US20190091494A1, “PEPTIDES FOR HAIR GROWTH” (Clinical Stem Cells Pty Ltd, priority 2016, published 2019)
